Tests used:
[1] = test system: MAPK pathway; details: cited from earlier work; for effect on ERK activation, as reported: literature report
[2] = test system: ERK; experiment: Western blot of ERK activation (anti-diphosphorylated ERK) in PC12 cells; assay type: cell-based; details: PC12 cells, PD09859 10 μM or U0126 0.01-10 μM, 100 ng/ml EGF or NGF for 5 min
Method: (§1) In order to confirm the simulation, PC12 cells treated with EGF (100 ng/ml) were used to measure the time data tracking the activation levels of MEK and ERK, respectively. […] Western blot analysis was performed as follows. PC12 cells were treated with 100 ng/ml EGF for 0 to 120 min. Dissolved protein samples were reacted by using anti-phosphorylated MEK antibodies and anti-diphosphorylated ERK antibodies. Then, the resultant was reacted with anti-HRP (horse radish peroxidase)-conjugated secondary antibodies and confirmed the presence of a band via ECL chemoluminscence.
(§2) PC12 cells treated with EGF or nerve growth factor (NGF) were examined to evaluate the efficacies of PD09859 (10 μM) and U0126 (0.01-10 μM) in respect of MEK and ERK activation. Western blot analysis was performed as follows. PC12 cells treated with PD09859 and U0126 were treated with 100 ng/ml of EGF or NGF for 5 min. Then, the resulting protein sample was separated by performing SDS/PAGE, and then blotted by using anti-phosphorylated MEK and anti-diphosphoryated ERK antibodies. Again, the resultant was blotted by using anti-HRP (horseradish peroxidase) conjugated secondary antibodies and identified in bands by ECL chemo-luminescence.

[3] = test system: MEK; experiment: Western blot of MEK activation (anti-phosphorylated MEK) in PC12 cells; assay type: cell-based; details: PC12 cells, U0126 0.01-10 μM, 100 ng/ml EGF or NGF for 5 min
Method: as §1, §2

SMILES | effect on ERK activation, as reported [1] | ERK activation / intracellular ERK phosphorylation [2] | inhibition of MAPK pathway compared with the other inhibitor ([1]; U0126 versus PD09859, literature report) | MEK activation [3]
COc1cccc(-c2cc(=O)c3ccccc3o2)c1N [PD98059] | suppress ERK activation | not suppressed |  | 
N#CC(=C(/N)Sc1ccccc1N)/C(C#N)=C(\N)Sc1ccccc1N [U0126] | suppress ERK activation | suppressed by the MEK activity dose-dependently | more effective and specific | not suppressed

— patent publication US20060200330A1, “Methods and systems for modeling and simulating biochemical pathways” (KOREA INSTITUTE OF SCIENCE AND TECHNOLOGY, priority 2005, published 2006)
